Experimental data: ChEMBL document CHEMBL3621066, “Vascular barrier protective effects of 3-N- or 3-O-cinnamoyl carbazole derivatives” (Bioorg Med Chem Lett, 2015)

How the values were obtained:
Mus musculus [1] = experiment: Antiinflammatory activity in mouse assessed as inhibition of HMGB1-induced leukocyte migration into peritoneal cavity at 402.4 ug/kg administered 16 hrs after HMGB1 challenge measured after 6 hrs by light microscopic analysis; format: functional
HUVEC [2] = experiment: Cytotoxicity against human HUVEC assessed as cell viability up to 20 uM after 24 hrs; format: cell-based
HUVEC [3] = experiment: Inhibition of HMGB1-induced hyperpermeability of Evans blue-bound albumin in human HUVEC at 10 uM after 6 hrs by spectrophotometric analysis relative to control; format: functional
HUVEC [4] = experiment: Antiinflammatory activity in human HUVEC assessed as inhibition of HMGB1-induced human neutrophils migration into cells at 10 uM after 6 hrs using crystal violet staining; format: functional
Mus musculus [5] = experiment: Antiinflammatory activity in mouse assessed as inhibition of HMGB1-induced hyperpermeability of Evans blue dye to peritoneal cavity at 402.4 ug/kg administered 16 hrs after HMGB1 challenge measured after 6 hrs; format: functional
Mus musculus [6] = experiment: Antiinflammatory activity in mouse assessed as inhibition of HMGB1-induced leukocyte migration into peritoneal cavity at 403.4 ug/kg administered 16 hrs after HMGB1 challenge measured after 6 hrs by light microscopic analysis; format: functional
Mus musculus [7] = experiment: Antiinflammatory activity in mouse assessed as inhibition of HMGB1-induced hyperpermeability of Evans blue dye to peritoneal cavity at 403.4 ug/kg administered 16 hrs after HMGB1 challenge measured after 6 hrs; format: functional
Mus musculus [8] = experiment: Antiinflammatory activity in mouse assessed as inhibition of HMGB1-induced leukocyte migration into peritoneal cavity at 342.4 ug/kg administered 16 hrs after HMGB1 challenge measured after 6 hrs by light microscopic analysis; format: functional
Mus musculus [9] = experiment: Antiinflammatory activity in mouse assessed as inhibition of HMGB1-induced hyperpermeability of Evans blue dye to peritoneal cavity at 342.4 ug/kg administered 16 hrs after HMGB1 challenge measured after 6 hrs; format: functional
Mus musculus [10] = experiment: Antiinflammatory activity in mouse assessed as inhibition of HMGB1-induced hyperpermeability of Evans blue dye to peritoneal cavity at 372.4 ug/kg administered 16 hrs after HMGB1 challenge measured after 6 hrs; format: functional
Mus musculus [11] = experiment: Antiinflammatory activity in mouse assessed as inhibition of HMGB1-induced leukocyte migration into peritoneal cavity at 372.4 ug/kg administered 16 hrs after HMGB1 challenge measured after 6 hrs by light microscopic analysis; format: functional

| SMILES | inhibition in vivo at 0.4024 mg/kg (Mus musculus [1]) | Activity (HUVEC [2]) | inhibition at 10 µM (HUVEC [3]) | inhibition at 10 µM (HUVEC [4]) | inhibition in vivo at 0.4024 mg/kg (Mus musculus [5]) | inhibition in vivo at 0.4034 mg/kg (Mus musculus [6]) | inhibition in vivo at 0.4034 mg/kg (Mus musculus [7]) | inhibition in vivo at 0.3424 mg/kg (Mus musculus [8]) | inhibition in vivo at 0.3424 mg/kg (Mus musculus [9]) | inhibition in vivo at 0.3724 mg/kg (Mus musculus [10]) | inhibition in vivo at 0.3724 mg/kg (Mus musculus [11]) |
| --- | --- | --- | --- | --- | --- | --- | --- | --- | --- | --- | --- |
| COc1cc(/C=C/C(=O)Nc2ccc3[nH]c4ccccc4c3c2)cc(OC)c1OC | 60.3% | Non-toxic | 68.4% | 62% | 57.5% |  |  |  |  |  |  |
| COc1cc(/C=C/C(=O)Oc2ccc3[nH]c4ccccc4c3c2)cc(OC)c1OC |  | Non-toxic | 70.2% | 65.4% |  | 61.2% | 58.9% |  |  |  |  |
| COc1ccc(/C=C/C(=O)Nc2ccc3[nH]c4ccccc4c3c2)cc1 |  | Non-toxic | 3.6% | 4.8% |  |  |  | 0.8% | 1.4% |  |  |
| COc1ccc(/C=C/C(=O)Nc2ccc3[nH]c4ccccc4c3c2)cc1OC |  | Non-toxic | 42.9% | 43.5% |  |  |  |  |  | 26.2% | 39% |
